Results on 5 compounds are retold here after patent EP1228058B1, “BENZOPYRANYL GUANIDINE DERIVATIVES, PROCESS FOR PREPARATION THEREOF, AND PHARMACEUTICAL COMPOSITIONS CONTAINING THEM” (Dongbu Hannong Chemical Co., Ltd., priority 1999, dated 2001).

Experiment [1] concerns ischemic heart models of rats. Put plainly: Heart protective (anti-ischemic) activity in ischemic heart models of anesthetized rats. Format: in vivo. As to conditions: 45 min occlusion, 90 min reperfusion. As for the experimental part: Male rats (350-450 g, obtained from the Experimental Animal Team of the Korea Research Institute of Chemical Technology) were anesthetized by the intraperitoneal injection of pentobarbital at a dose of 75 mg/kg. After trachetomy, the rats were rendered to respire artificially at a rate of 60/min with a stroke volume of 10 ml/kg. Cannulars were inserted into the fermoral vein and the fermoral artery and used for drug administration and blood pressure measurement, respectively.
In the ischemic myocardium damage models, the body temperature has an important influence on the results. To avoid the change in the body temperature, a body temperature measuring probe was inserted into the rectum of each rat and the body temperature was constantly kept at 37 °C with the aid of a homeothermic blanket control unit.
Afterwards, during testing, a continuous measurement was made of the mean arterial blood pressures and heart rates from the rats. For the measurement of the blood pressure, a pressure transducer, such as that manufactured by Grass Ins., MA, U.S.A., identified as Model Statham P23XL, was used. The heart rate was measured by a tachometer, such as that manufactured by Gould Inc., OH, U.S.A., identified as Biotachometer. In addition, all of the changes occurring were continuously recorded through the Gould 2000 chart recorder, manufactured by Gould Inc.
The left coronary artery was occluded according to the Selye H. method as follows. The rats underwent a left thoracotomy operation for partial opening of the chest and the right-side chest was pressurized by the middle finger of the left hand to push the heart out. Immediately after the left anterior descending coronary artery hereinafter referred to as (LAD) was carefully stitched using a suture needle with 5-0 silk ligature, the heart was then repositioned in the thoracic cavity while both ends of the ligature were situated outside. The opposite ligature ends were passed through a PE tube (PE100, 2.5 cm) and allowed to stand loose for 20 min for stabilization. Via the cannula inserted into the femoral vein, vehicles or drugs were administered into the rats which were rendered to stand for 30 min in order to sufficiently elicit the efficacies of the drugs. BMS-180448 was used as a control drug and the i.v.administration dose was 0.3 mg/kg for all test drugs of interest and the control drug.
Next, the PE tube which had the doubled strands of the ligature passed therethrough was pushed toward the heart and then, set upright by tightly pulling end regions of the ligature with a hemostatic pincette while pressing the coronary artery. The PE tube was allowed to stand for 45 min for the occlusion of the coronary artery, followed by the removal of the hemostatic pincette and then, by the reperfusion for 90 min.
After the reocclusion of the coronary artery in accordance with the above procedure, the rats were administered with 2 ml of a 1% Evans blue through an intravenous route. Subsequently, an excess of pentobarbital was intravenously injected to kill the rats, after which the heart was removed and then, deprived of the right ventricle and both atria. The left ventricle was cut horizontally to the heart apex into 5 or 6 slices which were weighed. From the surface of each slice, images were input with the aid of a Hi-scope into a computer installed with an image analyzing program (Image Pro Plus). From the images input into the computer, the area of the normal blood stream tissue region which appeared blue in a computer monitor and the area which appeared colorless were measured. The percentage of the colorless area to the total area of each slice was calculated and multiplied by the weight of each slice to determine the area at risk (AAR) of each slice. […]

A further experiment relates to RAW 264.7 cells. In words: Inhibition of LPS-induced NO production (Griess reagent). The following applies: Mus musculus, 24 hours; for inhibition at 100 µM: RAW264.7, 100 uM; for inhibition at 33 µM: RAW264.7, 33 uM. Format: cell-based, murine. As for the experimental part: Using RPMI1640 media supplemented with 10% fetal bovine serum (FBS), RAW 264.7 cells (obtained from American Type Culture Collection), a murine macrophage cell line, were cultured at 37 °C in a 5% CO2 incubator. The RAW264.7 cells were harvested and cell density was adjusted to 5x10^5/ml with a RPMI medium supplemented with 0.5% FBS and plated at 5x10^4 cells/well to 96-well plates, which were then cultured for 20 hr in a CO2 incubator. After removal of the media, the cells were pre-treated for 1 hour with fresh media containing 33 uM and 100 uM of test compounds. The test compounds were dissolved in DMSO and diluted to respective concentration in the media. In order to minimize DMSO effect on the nitric oxide formation by the RAW264.7 cells in the wells, the media were allowed to contain DMSO at a concentration of 0.1 % or less.
After completion of one hour pre-treatment, lipopolysaccharide (LPS, E. coli serotype 055:B5) was added to activate the cells, which were, then, maintained for 24 hours in a CO2 incubator. As a result of the activation of RAW264.7 cells with LPS, NO was formed. The NO released into the media was in a form of nitrite NO2^- and quantitatively measured using the Griess reagent. A control was treated only with vehicle instead of test compounds.
The inhibitory effects of the test compounds against NO production were determined as the reduction of NO quantity compared with that of the control group.
Background: Griess reagent forms a coloured azo dye with nitrite.

In experiment [2] the test system is cerebral cortical neurons. In words: Protective activity for neurons against iron-induced death (LDH release). The class given is cell-based. As to conditions: Rattus norvegicus, Cortical neurone, FeSO4 50 uM, 24 hours, LDH reduction, read-out: % Protection. As for the experimental part:
From the brains of 17-18 day-old rat embryos, cerebral cortical neurons were isolated and then, cultured at 37 °C for 7-9 days in a 5% CO2 incubator. The cortical cell cultures were washed twice with a minimum essential medium (MEM) to reduce the serum concentration to 0.2 % and pre-treated for 30 min with 10 uM and 30 uM of each of test compounds. For the experiments, the test compounds were dissolved in DMSO and diluted in a medium. At this time, the final concentration of DMSO was not allowed to exceed 0.2 %. For a control group, only vehicle was applied.
After the pre-treatment with test compounds or vehicle, FeSO4 was added to a final concentration of 50 uM, and the cultures were maintained for 24 hours in a CO2 incubator. During incubation, lactate dehydrogenase (LDH) was released into the medium upon neuronal death by the oxidative toxicity of iron. The extent of neuronal damage was assessed by measuring the amount of LDH secreted into the media. The protective effect of the compounds of interest on neurons was evaluated by calculating the LDH reduction rate of treatment group compared with that of the control group.
(In general: LDH leaks from cells whose membrane has failed.)

With `COC(OC)[C@@]1(C)Oc2ccc([N+](=O)[O-])cc2[C@H](NC(=NC#N)Nc2ccccc2Cl)[C@H]1O` [Example 32, (2S, 3R, 4S)-N''-cyano-N-(6-nitro-3,4-dihydro-3-hydroxy-2-methyl-2-dimethoxymethyl-2H-benzopyran-4-yl)-N'-(2-chlorophenyl)guanidine], the “Anti-ischemic Activity (in vivo, rats) (0.3 mg/kg i.v.) IZ/AAR (%)” value (shortened to “Anti-ischemic Activity (in vivo, rats) … (%)”) in experiment [1] turned out to be 44.72%. For the same compound, in the experiment with RAW 264.7 cells, the inhibition at 100 µM was found to be 83%.
As to `COC(OC)[C@@]1(C)Oc2ccc([N+](=O)[O-])cc2[C@@H](NC(=NC#N)NCc2ccccc2)[C@@H]1OC(C)=O` [Example 38, (2S, 3S, 4R)-N''-cyano-N-(6-nitro-3,4-dihydro-3-acetoxy-2-methyl-2-dimethoxymethyl-2H-benzopyran-4-yl)-N'-benzylguanidine], in experiment [1], the “Anti-ischemic Activity (in vivo, rats) … (%)” value was determined as 51.13%. Moreover, in experiment [2], the inhibition at 10 µM stood at 56% and the inhibition at 30 µM turned out to be 78%. In the experiment with RAW 264.7 cells, the inhibition at 33 µM was 56% and the inhibition at 100 µM stood at 85%.
Regarding `COC(OC)[C@@]1(C)Oc2ccc(N)cc2[C@@H](NC(=NC#N)NCc2ccccc2)[C@@H]1O` [Example 40, (2S, 3S, 4R)-N''-cyano-N-(6 - amino-3,4-dihydro-3-hydroxy-2-methyl-2-dimethoxymethyl-2H-benzopyran-4-yl)-N'-benzylguanidine], the “Anti-ischemic Activity (in vivo, rats) … (%)” value in experiment [1] was determined as 30.25%. For the same compound, in experiment [2], the inhibition at 10 µM amounted to 45% and the inhibition at 30 µM was found to be 97%. Further, the inhibition at 100 µM with RAW 264.7 cells came to 26%.
Consider `COC(OC)[C@@]1(C)Oc2ccc([N+](=O)[O-])cc2[C@H](NC(=NC#N)NCc2ccccc2)[C@H]1O` [Example 24, (2S, 3R, 4S)-N''-cyano-N-(6-nitro-3,4-dihydro-3-hydroxy-2-methyl-2-dimethoxymethyl-2H-benzopyran-4-yl)-N'-benzylguanidine], for which, in experiment [1], the “Anti-ischemic Activity (in vivo, rats) … (%)” value is 48.48%. Also, in experiment [2], the inhibition at 10 µM was found to be 29% and the inhibition at 30 µM was 47%. Besides, in the experiment on RAW 264.7 cells, the inhibition at 33 µM worked out at 16% and the inhibition at 100 µM came to 48%.
Turning to `COC(OC)[C@@]1(C)Oc2ccc([N+](=O)[O-])cc2[C@@H](NC(=NC#N)NCc2ccccc2)[C@@H]1O` [Example 25, (2S, 3S, 4R)-N''-cyano-N-(6-nitro-3,4-dihydro-3-hydroxy-2-methyl-2-dimethoxymethyl-2H-benzopyran-4-yl)-N'-benzylguanidine], in experiment [1], the “Anti-ischemic Activity (in vivo, rats) … (%)” value is 48.55%. For the same compound, in experiment [2], the inhibition at 30 µM is 69%. In the experiment with RAW 264.7 cells, this compound returned an inhibition at 33 µM of 39% and an inhibition at 100 µM of 54%.
